# Where two headings read alike, the source gives them in different places.
# Columns and labels:
# Assay type in all cases: cell-based
# [1] = test system: B. cepacia ATCC 25416; test: Broth microdilution MIC, ATCC strains; conditions: Burkholderia cepacia
# Outline: (§1)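 NCCLS M7-A6 broth microdilution, inoculum 5×10^5 CFU/ml, with DMSO controls; read after 16 to 20 hours at 35° C in ambient air. MIC is lowest concentration inhibiting visible growth; clinical strains were outpatient urinary isolates from NAUTICA, alongside ATCC reference strains.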
# [2] = test system: E. aerogenes ATCC 13048; test: Broth microdilution MIC, ATCC strains; conditions: Klebsiella aerogenes
# Outline: as §1
# [3] = test system: E. faecium ATCC 35667; test: Broth microdilution MIC, ATCC strains; conditions: Enterococcus faecium, ATCC35667, read-out: MIC (growth inhibition, microdilution method)
# Outline: as §1
# [4] = test system: P. vulgaris ATCC 49132; test: Broth microdilution MIC, ATCC strains; conditions: Proteus vulgaris
# Outline: as §1
# [5] = test system: Pr. stuartii ATCC 33672; test: Broth microdilution MIC, ATCC strains; conditions: Providencia stuartii
# Outline: as §1
# [6] = test system: Ps. aeruginosa ATCC 27853; test: Broth microdilution MIC, ATCC strains; conditions: for MIC: Pseudomonas aeruginosa
# Outline: as §1
# [7] = test system: S. aureus ATCC 29213; test: Broth microdilution MIC, ATCC strains; conditions: for MIC (growth inhibition, microdilution method): S. aureus ATCC 29213; for MIC: Staphylococcus aureus, ATCC29213, S. aureus ATCC 29213, read-out: MIC (growth inhibition, microdilution method)
# Outline: as §1
# [8] = test system: S. epidermidis ATCC 14990; test: Broth microdilution MIC, ATCC strains; conditions: Staphylococcus epidermidis, ATCC14990; S. epidermidis ATCC 14990; read-out: MIC (growth inhibition, microdilution method)
# Outline: as §1
# [9] = test system: S. liquefaciens ATCC 27592; test: Broth microdilution MIC, ATCC strains; conditions: read-out: MIC (growth inhibition, microdilution method)
# Outline: as §1
# [10] = test system: S. maltophilia ATCC 13637; test: Broth microdilution MIC, ATCC strains; conditions: Stenotrophomonas maltophilia
# Outline: as §1
# [11] = test system: S. simulans ATCC 27848; test: Broth microdilution MIC, ATCC strains; conditions: Staphylococcus simulans, ATCC27848, read-out: MIC (growth inhibition, microdilution method)
# Outline: as §1
# [12] = test system: Ps. aeruginosa clinical isolates; test: Broth microdilution MIC, clinical isolate strains (NAUTICA); conditions: Table 4B; each table row is one clinical isolate; unit assumed
# Outline: as §1
# [13] = ATCC25416, B. cepacia ATCC 25416, read-out: MIC (growth inhibition, microdilution method)
# [14] = ATCC13048, E. aerogenes ATCC 13048, read-out: MIC (growth inhibition, microdilution method)
# [15] = ATCC49132, P. vulgaris ATCC 49132, read-out: MIC (growth inhibition, microdilution method)
# [16] = ATCC33672, Pr. stuartii ATCC 33672, read-out: MIC (growth inhibition, microdilution method)
# [17] = ATCC27853, Ps. aeruginosa ATCC 27853, read-out: MIC (growth inhibition, microdilution method)
# [18] = ATCC13637, S. maltophilia ATCC 13637, read-out: MIC (growth inhibition, microdilution method)
Structure (SMILES),"MIC [1, 13] [µg/mL]","MIC [2, 14] [µg/mL]",MIC [3] [µg/mL],"MIC [4, 15] [µg/mL]","MIC [5, 16] [µg/mL]","MIC [6, 17] [µg/mL]","MIC (growth inhibition, microdilution method) [7] [µg/mL]",MIC [7] [µg/mL],MIC [8] [µg/mL],MIC ([9]; S. liquefaciens ATCC 27592) [µg/mL],"MIC [10, 18] [µg/mL]",MIC [11] [µg/mL],"MIC, PS. AER [12] [µg/mL]",other results
"O=C(O)c1cc(-c2nnn[nH]2)c(-c2ccc(F)cc2)s1 [DNM-121, 5-(4-Fluoro-phenyl)-4-(1H-tetrazol-5-yl)-thiophene-2-carboxylic acid]",64,64,8,64,64,64,32,64,64,64,64,64,,
"Cn1nnc(-c2cc(C(=O)O)sc2C(=O)O)n1 [DNM-112, 3-(2-Methyl-2H-tetrazol-5-yl)-thiophene-2,5-dicarboxylic acid]",,,8,,,,,16,16,,,8,,"MIC ([1]; ATCC25416, read-out: MIC (growth inhibition, microdilution method)): > 256 µg/mL; MIC ([2]; ATCC13048, read-out: MIC (growth inhibition, microdilution method)): > 256 µg/mL; MIC ([4]; ATCC49132, read-out: MIC (growth inhibition, microdilution method)): > 256 µg/mL; MIC ([5]; ATCC33672, read-out: MIC (growth inhibition, microdilution method)): > 256 µg/mL; MIC ([6]; ATCC27853, read-out: MIC (growth inhibition, microdilution method), Ps. aeruginosa ATCC 27853): > 256 µg/mL; MIC [9]: > 256 µg/mL; MIC ([10]; ATCC13637, read-out: MIC (growth inhibition, microdilution method)): > 256 µg/mL"
"Cn1nnc(-c2cc(C(=O)O)sc2-c2ccc(F)cc2)n1 [DNM-123, 5-(4-fluorophenyl)-4-(2-methyl-2H-tetrazol-5-yl)thiophene-2-carboxylic acid]",≤ 0.5,8,8,> 8,> 8,8,,> 8,4,8,≤ 0.5,> 8,,"MIC (growth inhibition, microdilution method) ([6]; Ps. aeruginosa ATCC 27853): 8 µg/mL"
"COC(=O)c1sc(-c2ccc(F)cc2)cc1-c1nnnn1C [DNM-145, 5-(4-Fluoro-phenyl)-3-(1-methyl-1H-tetrazol-5-yl)-thiophene-2-carboxylic acid methyl ester]",> 4,> 4,> 4,> 4,> 4,> 4,,> 4,> 4,> 4,> 4,> 4,> 4,
"Fc1ccc(-c2cc(-c3nnn[nH]3)c(-c3ccc(F)cc3)s2)cc1 [DNM-131, 5-(2,5-Bis(4-fluorophenyl)thiophen-3-yl)-1H-tetrazole]",> 32,> 32,> 32,> 32,> 32,> 32,>32,32,> 32,> 32,> 32,> 32,> 32,
"O=C(O)c1sc(-c2ccc(F)cc2)cc1-c1nnn[nH]1 [DNM-141, 5-(4-Fluoro-phenyl)-3-(1H-tetrazol-5-yl)-thiophene-2-carboxylic acid]",> 16,> 16,> 16,> 16,> 16,> 16,,> 16,> 16,> 16,> 16,> 16,> 16,
"O=C(O)c1cc(-c2nn[nH]n2)cs1 [DNM-116, 4-(2H-Tetrazol-5-yl)-thiophene-2-carboxylic acid]",16,16,8,32,32,16,>32,32,16,16,16,> 32,,
"Cn1nnc(-c2cc(-c3ccc(F)cc3)sc2C(=O)O)n1 [DNM-142, 5-(4-Fluoro-phenyl)-3-(2-methyl-2H-tetrazol-5-yl)-thiophene-2-carboxylic acid]",> 16,> 16,> 16,> 16,> 16,> 16,,> 16,> 16,> 16,> 16,> 16,> 16,
